Measured values: BindingDB's records for doi:10.1016/s0960-894x(02)01041-7 (Seoul National University, 2003)

Target: HT-29 cell line (Homo sapiens)
Test: In vitro antiproliferative activity of compound against HT-29 (human colon caner ) cell line was determined by SRB assay

Row | IC50 | SMILES
1 | 113 µM | N#Cc1ccc(C=O)nc1SCc1c(Cl)cccc1Cl [2-(2,6-Dichloro-benzylsulfanyl)-6-formyl-nicotinonitrile]
2 | 33.1 µM | O=Cc1cccc(C(=O)Sc2ccc(Cl)c(Cl)c2)n1 [6-Formyl-pyridine-2-carbothioic acid S-(3,4-dichloro-phenyl) ester]
